Measurements taken from patent publication US8729047B2, “Compositions for inhibiting redox-sensitive GTPases” (Board of Regents, The University of Texas System, priority 2010, dated 2014).
Each block holds one compound with its values, some of them ahead of it.

Key:
RhoC = RhoC (Homo sapiens, UniProt P08134); experiment: Co-IP mass spectrometry of thioguanine nucleotide disulfide adduct; format: cell-based; set-up: endogenous in cells; host or cells: SUM149, SUM102, SW480, HCCLM3 (endogenous); HME-RhoC (transfected with wild type RhoC)
Procedure: FIG. 6. Detection of unusual 6-TGNP adduct from HME-RhoC cells. […] A monoclonal RhoC antibody (Biocompare, South San Francisco, Calif.) and a “Mammalian Co-Immunoprecipitation Kit” (Pierce) were used for the analyses of the RhoC 6-TGNP interaction in HME-RhoC cells. The immunoprecipitated RhoC sample was suspended in 50% methanol:0.1% formic acid. The protein portion and RhoC-released nucleotide were separated by a brief centrifugation (3000×g for 5 min). The protein portion from the immunoprecipitated RhoC was resuspended in the assay buffer (pH 7.5), digested with trypsin for 10 h, and analyzed with MALDI-TOF tandem mass spectrometry. The MALDI-TOF peak at 1476.6 Da represents peptide-6-TGDP adduct; TC^20LLIVFSK-6-TGDP (SEQ ID NO:4).
FIG. 15. Detection of unusual 6-TGNP adduct from SUM and HME-RhoC cells. The ESI-MS and MS/MS methods to detect and identify a chemically modified RhoC residue are described elsewhere herein. […] The left and right columns, respectively, denote any of the RhoC samples taken from SUM and HME cells. As indicated, a mixture of samples taken from untreated SUM149 and SUM102 cells was used as a control for the experiment shown in the left column. For the right column, a mixture of samples taken from HME-RhoC and […] cells was used as a control. (B) A MS/MS analysis was performed with the ESI-MS sample of 6-TG-treated SUM149 cells to identify a biomolecule that have a mass of 1481.6 Da. […]
Cell lysates in an extraction buffer were incubated with a monoclonal anti-RhoC antibody precoupled to glutathione-agarose beads. […] The protein portion from the immunoprecipitated RhoC was resuspended in a buffer containing 1 mM EDTA and 0.1 mM DTPA in 50 mM TrisHCl (pH 7.4), then digested with trypsin for 10 h, and analyzed with electrospray mass spectrometry (ESI-MS) and tandem mass spectrometry (MS/MS) in the positive ion mode ([molecular mass+H]^+).

SUM149 cells = experiment: MTT cell viability and caspase-3/8 assays; format: cell-based, human
Text: FIG. 25. […] (B) Caspase-3/8 assay: the apoptotic activity of sample cells treated with the apoptotic inducer was set to be 100%, and other results were then expressed as normalized values against the mean value associated with the treatment with the apoptotic inducer. For both (A) and (B), all values represent the mean values and standard error values from triplicate measurements.

Rho GTPases = experiment: Binding of 6-TGDP compared with GDP (Example 2); settings: Example 2, FIG. 13 values
Procedure: The true dissociation constant (^trueKD 6-TGDP) of Ras, RhoC, RhoA and Rac1 for 6-TGDP was then calculated to be ˜20.7 pM, 212 μM, 208 μM, and 158 μM [6-TGDP] by using a compensation equation, ^trueKD 6-TGDP=^appKD 6-TGDP/(1+[GDP]/^trueKD GDP) (95), in conjunction with the values given [(^appKD 6-TGDP of Ras, RhoC, RhoA, and Rac1=2300, 230, 224, and 245 μM (FIG. 13) and ^trueKD GDP=9 pM, 12 μM, 13 μM and 1.8 μM, respectively. The ^trueKD GDP of Ras, RhoA and Rac1 was determined previously (Lenzen et al. Biochemistry 37, 7420-7430 (1998); Heo et al. Biochemistry 44, 6573-6585 (2005)) and the ^trueKD GDP of RhoC was further determined. Example: ^trueKD 6-TGDP for Ras=2300 μM/(1+1 μM GDP/[…])=[…] [6-TGDP]].

Rac1 = Rac1 (Homo sapiens, UniProt P63000); set-up: made in house; host or cells: E. coli; settings: determined previously; read-out: trueKD GDP; cited from earlier work

RhoC, sequence (P08134 whole entry): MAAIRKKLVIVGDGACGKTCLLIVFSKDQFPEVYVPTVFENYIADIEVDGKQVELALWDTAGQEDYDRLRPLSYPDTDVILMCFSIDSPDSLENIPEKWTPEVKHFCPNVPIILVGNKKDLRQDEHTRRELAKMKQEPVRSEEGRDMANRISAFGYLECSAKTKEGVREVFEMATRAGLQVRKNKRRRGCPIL

- peak assigned to RhoC-6-TGDP adduct (RhoC; 6-TG in the presence of a NO donor): increased
- RhoC-derived peptide-6-TGDP disulfide adduct mass peak by ESI-MS (RhoC; co-IPed RhoC from SUM149 and HME-RhoC cells treated with 6-TG, FIG. 15A): commonly exhibited
SMILES: Nc1nc2nc[nH]c2c(=S)[nH]1 [6-TG, 6-thioguanine]
- peptide-6-TGDP adduct (TC20LLIVFSK-6-TGDP) by MALDI-TOF (RhoC; HME-RhoC cells, 6-TG 1 μM every 48 h, 5 days, FIG. 6): detected
- apoptotic effect (caspase, FIG. 25B) (SUM149 cells; 6-TG): minimal
- viability and caspase activity (SUM149 cells; 6-TG and DETA/NO, FIG. 25): minimally affected
- cell viability (MTT, FIG. 25A) (SUM149 cells; 6-TG for 3 days): minimally affected

- binding interaction with 6-TGDP weaker than with GDP (Rho GTPases): ~15 fold
SMILES: Nc1nc2c(ncn2[C@@H]2O[C@H](COP(=O)(O)OP(=O)(O)O)[C@@H](O)[C@H]2O)c(=S)[nH]1 [6-TGDP, 6-thioguanosine diphosphate]

SMILES: Nc1nc2c(ncn2[C@@H]2O[C@H](COP(=O)(O)OP(=O)(O)O)[C@@H](O)[C@H]2O)c(=O)[nH]1 [GDP]
- Kd (Rac1): 1800 nM
